# Reference: patent US20250057963A1, “DISCOVERY OF PIPERLONGUMINE AS A NOVEL E3 LIGASE LIGAND” (University of Florida Research Foundation, Incorporated, priority 2021, published 2025)
# Entries after “also recorded” stand apart in the source; their conditions may differ.
# What was measured:
# [1] = test system: LNCaP, 22RV1, PC3 and DU145 prostate cancer cell lines; assay: Viability (MTS) assay in prostate cancer cell lines; type: cell-based, Human; conditions: all four cell lines LNCaP, 22RV1, PC3, DU145; MTS, 72 h treatment
# Protocol: All the cell lines were maintained in a humidified incubator at 37° C. and 5% CO2. […] The data were expressed as average % cell viability and fitted in non-linear regression curves using GraphPad Prism 9 (GraphPad Software, La Jolla, CA, USA).
# purified KEAP1 protein = target: T1, purified KEAP1 protein (Homo sapiens, UniProt Q14145); assay: Gel-based competitive ABPP assay with IA-alkyne; type: binding; conditions: purified His-KEAP1, serially diluted 955
# T1 construct: made in house; host or cells: bacterial cells grown in LB and induced with IPTG
# T1 sequence (Q14145 whole entry): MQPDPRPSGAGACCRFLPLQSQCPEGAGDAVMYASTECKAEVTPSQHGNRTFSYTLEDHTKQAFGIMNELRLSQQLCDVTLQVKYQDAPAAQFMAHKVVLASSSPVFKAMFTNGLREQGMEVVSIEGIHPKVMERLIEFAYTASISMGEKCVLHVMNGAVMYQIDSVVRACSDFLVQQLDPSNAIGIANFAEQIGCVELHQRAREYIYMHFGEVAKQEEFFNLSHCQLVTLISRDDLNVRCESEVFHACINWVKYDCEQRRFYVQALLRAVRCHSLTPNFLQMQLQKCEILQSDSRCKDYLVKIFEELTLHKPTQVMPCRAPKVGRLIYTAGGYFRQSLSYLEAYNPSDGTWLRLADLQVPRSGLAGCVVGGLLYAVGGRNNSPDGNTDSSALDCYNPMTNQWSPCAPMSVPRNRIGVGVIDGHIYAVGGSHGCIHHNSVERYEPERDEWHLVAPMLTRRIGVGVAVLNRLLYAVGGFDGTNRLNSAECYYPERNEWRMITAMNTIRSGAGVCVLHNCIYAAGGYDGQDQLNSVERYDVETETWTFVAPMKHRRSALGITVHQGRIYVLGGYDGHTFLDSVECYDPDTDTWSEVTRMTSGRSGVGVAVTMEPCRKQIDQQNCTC
# Protocol: The plasmid pet28a-His6-Keap1 for expressing His-KEAP1 was purchased from Addgene (a gift from Yimon Aye, plasmid #62454). To purify His-KEAP1, the plasmid transformed cells were grown in LB broth at 37° C. with shaking until the optical density at 600 nm reached 0.6-0.7. Isopropyl-β-D-thiogalactopyranoside (1 mM) was added to induce protein expression overnight at 16° C. Cell pellet was resuspended in lysis buffer [50 mM Tris-Hcl (pH 7.5), 150 mM NaCl, 1 mM EDTA, 0.05% NP-40, […], lx protease inhibitor, and 1 mM DTT] and lysed using sonication. The lysate was cleared by centrifugation at 20,000×g for 30 min at 4° C. and purified by using GE Healthcare His GraviTrap™ Kit (Cat. No. 45-002-016, Fisher Scientific). After elution, the proteins were concentrated by using Pierce Protein Concentrators PES, 30K MWCO (Cat. No. 88502, ThermoFisher) and then dialyzed into the buffer containing 50 mM HEPES, 150 mM NaCl, and 0.1 mM EDTA (pH 7.5).
# A gel-based ABPP assay was performed as previously described with some modifications (Ward et al., 2019). Briefly, Purified His-KEAP1 ([…]) was diluted into 50 μL of PBS and 0.5 μL of either DMSO (vehicle) or indicated compound was added to incubate at 25° C. for 1 h, then the samples were treated with 20 µM IA-Alkyne (Cat. No. 7015, Tocris, prepared in DMSO) at 25° C. for 1 h. […]
# CDK9 = CDK9 (Homo sapiens, UniProt P50750); assay: TMT-based global proteomics in MOLT4 cells; type: cell-based; design: endogenous in cells; host or cells: MOLT4
# Chain of CDK9 (P50750 whole entry): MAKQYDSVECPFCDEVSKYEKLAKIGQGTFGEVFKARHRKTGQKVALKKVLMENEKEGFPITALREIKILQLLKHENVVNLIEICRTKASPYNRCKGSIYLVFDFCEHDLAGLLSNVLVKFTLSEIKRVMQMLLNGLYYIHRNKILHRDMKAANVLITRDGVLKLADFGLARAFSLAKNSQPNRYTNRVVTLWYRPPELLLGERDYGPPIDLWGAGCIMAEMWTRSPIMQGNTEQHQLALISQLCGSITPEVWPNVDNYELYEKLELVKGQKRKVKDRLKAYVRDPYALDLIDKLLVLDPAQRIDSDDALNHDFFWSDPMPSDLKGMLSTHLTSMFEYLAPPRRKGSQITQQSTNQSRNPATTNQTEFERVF
# Source text: Sample Preparation and LC-MS/MS analysis. Total protein from cell pellets was reduced, alkylated, and purified by chloroform/methanol extraction prior to digestion with sequencing grade modified porcine trypsin (Cat. No. V5111, Promega). Tryptic peptides were labeled using tandem mass tag isobaric labeling reagents (Cat. No. A34808, ThermoFisher) following the manufacturer's instructions and combined into one 11-plex sample group. The labeled peptide multiplex was separated into 46 fractions on a 100×1.0 mm Acquity BEH C18 column (Waters) using an UltiMate 3000 UHPLC system (Thermo) with a 50 min gradient from 99:1 to 60:40 bufferA:B (Buffer A: 0.1% formic acid, 0.5% acetonitrile; Buffer B: 0.1% formic acid, 99.9% acetonitrile. Both buffers adjusted to pH 10 with ammonium hydroxide for offline separation) ratio under basic pH conditions, and then consolidated into 18 super-fractions. […]
# Data processing and analysis. Proteins were identified and MS3 reporter ions quantified using MaxQuant (version 2.0.3.0; Max Planck Institute) against the Homo sapiens UniprotKB database (March 2021) with a parent ion tolerance of 3 ppm, a fragment ion tolerance of 0.5 Da, and a reporter ion tolerance of 0.003 Da. Scaffold Q+S (Proteome Software) was used to verify MS/MS based peptide and protein identifications (protein identifications were accepted if they could be established with less than 1.0% false discovery and contained at least 2 identified peptides; protein probabilities were assigned by the Protein Prophet algorithm (Nesvizhskii et al., 2003) and to perform reporter ion-based statistical analysis. Protein TMT MS3 reporter ion intensity values were assessed for quality using ProteiNorm for a systematic evaluation of normalization methods (Graw et al., 2020). Cyclic loess normalization (Ritchie et al., 2015) was utilized since it had the highest intragroup correlation and the lowest variance amongst the samples. […]
compound,measurement,setting,value
"COc1cc(/C=C/C(=O)N2CCC=CC2=O)cc(OC)c1OCCN1CCN(C(=O)CN2CCC(C(=O)Nc3ncc(SCc4ncc(C(C)(C)C)o4)s3)CC2)CC1 [compound 955, (E)-N-(5-(((5-(tert-butyl)oxazol-2-yl)methyl)thio)thiazol-2-yl)-1-(2-(4-(2-(2,6-dimethoxy-4-(3-oxo-3-(6-oxo-3,6-dihydropyridin-1(2H)-yl)prop-1-en-1-yl)phenoxy)ethyl)piperazin-1-yl)-2-oxoethyl)piperidine-4-carboxamide]","EC50, anti-proliferation",[1],single digital nM range
same,competition with IA-alkyne for covalent binding to KEAP1,purified KEAP1 protein,concentration-dependent manner
same,proteins degraded or downregulated after short treatment (global proteome),"CDK9; 0.1 μM 955, 1 hour",only degraded CDK9 and CDK10 and downregulated one downstream protein FYTTD1
same,CDK9 protein level (global proteome),"CDK9; 0.1 μM 955 for 1 h and 6 h, 1 μM SNS-032 for 6 h",reduced the protein level of CDK9; also recorded: significant reduction of CDK9
